Reference: patent US9040713B2, “Methods of managing blood sugar levels and compositions related thereto” (EMORY UNIVERSITY, priority 2010, dated 2015)

Legend:
[1] = molecular target: IR (Homo sapiens, UniProt P06213); assay: Insulin competition assay (FITC-insulin, flow cytometry); assay type: binding; set-up: expressed in transfected cells; host or cells: CHO (CHO-IR, gift from Dr. Nicholas Webster, UCSD); conditions: CHO-IR cells
Method: Cells were washed three times, acquired on a FACScan, and the mean channel fluorescence (MCF) of bell-shaped histograms was analyzed using the CellQuest program.
Cells were washed three times, acquired on a FACScan, and the mean channel fluorescence (MCF) of bell-shaped histograms was analyzed using the FlowJ program.

[2] = system: mice; assay: Repeated dosing tolerability in mice; assay type: in vivo, mouse
Method: […] Mice were chronically treated with 4524-E7 for 2 weeks and tested if the compound can inhibit food intake.
In liver and muscle, DDN elicited demonstrable IR activation after 3-4 h (FIG. 3B, 1st panel). […] The liver was then dissected and homogenized after 5 min. […] Similarly to the observation in C57/BL6 mice, DDN induces IR signaling in the well-established mice models of non-insulin-dependent diabetes mellitus.

[3] = molecular target: T1, GST-IRTK (Homo sapiens, UniProt P06213); assay: Partial proteolysis; assay type: binding; conditions: compound 50 μM or ATP-γ-S 5 μM; limited trypsin (or chymotrypsin) digestion
T1 construct: GST-tagged IRTK (GST-IRTK, a.a. 1011-1382); purchased Invitrogen
T1 sequence (P06213 1011-1382): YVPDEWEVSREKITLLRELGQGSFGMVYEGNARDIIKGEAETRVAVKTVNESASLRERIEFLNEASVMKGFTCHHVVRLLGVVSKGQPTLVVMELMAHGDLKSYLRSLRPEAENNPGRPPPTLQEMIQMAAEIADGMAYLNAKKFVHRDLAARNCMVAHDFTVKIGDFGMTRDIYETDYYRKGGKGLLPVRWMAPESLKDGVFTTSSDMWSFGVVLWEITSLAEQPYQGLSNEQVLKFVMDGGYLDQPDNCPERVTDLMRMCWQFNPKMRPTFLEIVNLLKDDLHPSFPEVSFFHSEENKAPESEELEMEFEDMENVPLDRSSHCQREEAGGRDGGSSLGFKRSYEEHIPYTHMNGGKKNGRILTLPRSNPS
Method: 200 ng GST-IRTK was subjected to limited trypsin digestion in the presence or absence of 50 μM compound with 50 mM tris-HCL (pH8.2) and 20 mM CacCl2. The sample was separated on a SDS-polyacrylamide gel and stained by silver.
Several small molecules bind to the intracellular kinase domain of IR (IRTK) and provoke its activation. DDN might also interact with the IRTK to activate IR. To test this possibility, an UV-absorption spectra analysis was performed using recombinant IRTK. While the GST-tagged IRTK (GST-IRTK, a.a. 1011-1382) had no absorption from 200 nm to 800 nm, addition of DDN, but not its structural related analogue naptho[2,3-d]thiazole-4,9-dione-2-[(4-chlorophenyl)amino] […] Partial proteolysis analysis was also performed to confirm the DDN/IRTK interaction. Recombinant GST-tagged IRTK was incubated with either DMSO or DDN, followed by limited trypsin digestions. In DMSO treatment, GST-IRTK was digested into several smaller fragments of various molecular weights. […] Whereas a band of ˜37 kDa presented strongly in the ATP-γ-S incubated IRTK, a band of ˜30 kDa was found in the control samples but attenuated in the ATP-γ-S-treated sample.
To evaluate if 4524-E7 directly binds to the IR kinase domain, a partial proteolysis assay was performed with recombinant IRTK domain using trypsin or chymotrypsin, which was used before to characterize the interaction between IR and its small molecular ligand DAQ B1. Recombinant GST-tagged IRTK with either DMSO, 50 μM 4524-E7 or ATP-γ-S, were incubated and followed by limited trypsin or chymotrypsin digestion. Under DMSO treatment, GST-IRTK was quickly digested by both trypsin and chymotrypsin into several small fragments with various molecular weights (FIG. 10B). […] To test whether 4524-E7 selectively elevates IR kinase activities, an in vitro IR, IGFR, and EGFR kinase assays were performed using histone as the substrate.

[4] = C57BL/6J mice, 5 mg/kg daily oral, 16 days

Chain of IR (P06213 763-1382 limits assumed): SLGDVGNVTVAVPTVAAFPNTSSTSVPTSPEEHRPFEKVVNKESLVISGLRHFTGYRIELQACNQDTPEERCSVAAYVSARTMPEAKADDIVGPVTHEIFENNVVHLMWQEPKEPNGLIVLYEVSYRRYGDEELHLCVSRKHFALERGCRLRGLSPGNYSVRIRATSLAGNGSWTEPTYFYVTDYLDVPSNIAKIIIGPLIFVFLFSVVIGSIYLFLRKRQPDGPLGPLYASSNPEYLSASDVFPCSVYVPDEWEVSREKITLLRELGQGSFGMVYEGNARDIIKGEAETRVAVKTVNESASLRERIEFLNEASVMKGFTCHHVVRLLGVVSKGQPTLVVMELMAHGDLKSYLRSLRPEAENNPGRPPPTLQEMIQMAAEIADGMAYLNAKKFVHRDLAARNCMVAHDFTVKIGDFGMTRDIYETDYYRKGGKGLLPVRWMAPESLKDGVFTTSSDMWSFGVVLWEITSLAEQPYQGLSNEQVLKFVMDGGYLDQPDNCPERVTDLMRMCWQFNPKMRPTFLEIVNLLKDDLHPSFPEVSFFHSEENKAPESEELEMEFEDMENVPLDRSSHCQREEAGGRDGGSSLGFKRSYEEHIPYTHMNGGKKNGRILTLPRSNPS
Chain of IR (P06213 28-758 limits assumed): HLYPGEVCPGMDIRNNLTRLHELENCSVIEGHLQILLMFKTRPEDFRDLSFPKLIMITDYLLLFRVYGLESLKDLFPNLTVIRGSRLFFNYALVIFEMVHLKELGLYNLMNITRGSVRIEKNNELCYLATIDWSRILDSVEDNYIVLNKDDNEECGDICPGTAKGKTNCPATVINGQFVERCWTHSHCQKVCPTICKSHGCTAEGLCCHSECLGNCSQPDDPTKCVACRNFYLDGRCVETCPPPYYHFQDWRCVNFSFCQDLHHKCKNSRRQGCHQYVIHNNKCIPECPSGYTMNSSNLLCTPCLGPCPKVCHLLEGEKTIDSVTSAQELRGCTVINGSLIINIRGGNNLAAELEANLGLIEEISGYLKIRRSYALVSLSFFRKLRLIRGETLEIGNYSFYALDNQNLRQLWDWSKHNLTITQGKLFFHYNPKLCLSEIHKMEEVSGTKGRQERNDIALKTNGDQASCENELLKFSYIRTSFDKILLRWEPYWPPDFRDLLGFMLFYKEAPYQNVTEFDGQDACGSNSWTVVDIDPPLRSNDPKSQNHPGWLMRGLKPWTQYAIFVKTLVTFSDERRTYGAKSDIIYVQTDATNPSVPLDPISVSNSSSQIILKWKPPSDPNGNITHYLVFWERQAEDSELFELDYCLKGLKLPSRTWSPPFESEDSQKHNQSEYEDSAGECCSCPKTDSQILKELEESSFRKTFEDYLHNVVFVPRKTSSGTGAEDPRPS

Row | protection of IRTK from proteolysis [3] | SMILES | competition with FITC-insulin for IR binding (shift of fluorescent peak) ([1]; 100 nM FITC-insulin, unlabelled insulin 5 μM) | food intake and blood biochemistry [2, 4] | pathological examination of brain, heart, liver, kidney and muscle [2, 4] | side effects ([2]; administrated to animals for two weeks) | competition with FITC-insulin for IR binding (shift of fluorescent peak) ([1]; 10 nM FITC-insulin, unlabelled insulin 1 μM) | blood chemistry analysis ([2]; 5 mg/kg, 2 weeks) | food intake and body weight compared to vehicle control ([2]; 5 mg/kg, 2 weeks) | pathological examination on all major organs ([2]; two week period)
1 | protected IRTK against trypsin digestion | CC(=O)Oc1ccc(OC(C)=O)c2c1C(=O)C(Cl)=C(Cl)C2=O [DDN, 5,8-diacetyloxy-2,3-dichloro-1,4-naphthoquinone] | No significant change of the shifted peak position | did not affect the food intake, or blood biochemistry | failed to detect any demonstrable toxicity | does not exhibit any intolerable side effects |  |  |  | 
2 | more intact IRTK was observed | O=C1c2ccccc2C(=O)C2SC(Nc3ccc(Cl)cc3)=NC12 (stereo not shown) [4524-E7, 2-((4-chlorophenyl)amino)naphtho[2,3-d]thiazole-4,9(3aH,9aH)-dione] |  |  |  |  | no significant change of the shifted peak position | comparable results between drug-treated mice and vehicle control | not significantly changed | no demonstrable toxicity was detected
